# Entries after “also recorded” stand apart in the source; their conditions may differ.
# Tests used:
# [1] = system: rd1 mice expressing SNAP-mGluR2 in ON-BCs; test: Line pattern recognition (learned aversive association, iPad displays), SNAP-mGluR2 in ON-BCs; format: in vivo, mouse; settings: in PBS, trained and tested within a week after intravitreal injection
# Procedure: Modified active avoidance was assayed as previously described^19, using the Coulbourn shuttle box (H10-11M-SC), however, now iPad tablet screens were mounted onto the shuttle cage wall, each displaying one of two images that differed in orientation or distance between two lines but were otherwise of equal shape, size, and light intensity. The aversive image side was paired with a foot shock of 0.7 mA. Upon recall the light patterns were reversed to avoid a bias for location and time spent on each side was recorded. Adaptation was tested by dimming or brightening the display to different intensities.
# As shown above, ^4×BGAG12,460:SNAP-mGluR2 in either RGCs or ON-BCs confers high sensitivity light perception. It was asked whether ^4×BGAG12,460:SNAP-mGluR2 would support patterned vision. The ability of treated and untreated rd1 mice to discriminate between two different line patterns in a learned negative association task was tested. The task is carried out in a 2-chamber arena, where the floor in each chamber is conductive and can apply an independent aversive mild foot shock. […] The mouse was trained for two days, during which a mild foot shock was given in one of the chambers. The line pattern associated with the foot shock was assigned randomly initially but then kept consistent for that animal throughout the 2 days of training. […]
# SNAP-mGluR2 = target: T1, SNAP-mGluR2 (Rattus norvegicus, UniProt P31421); test: Photoactivation of SNAP-mGluR2 read out as GIRK current, whole cell patch clamp in HEK293 cells; format: cell-based
# T1 construct: expressed in transfected cells; host or cells: HEK293 / HEK 293T, with co-expressed GIRK channel
# T1 sequence (P31421 with tags, fused parts or gaps): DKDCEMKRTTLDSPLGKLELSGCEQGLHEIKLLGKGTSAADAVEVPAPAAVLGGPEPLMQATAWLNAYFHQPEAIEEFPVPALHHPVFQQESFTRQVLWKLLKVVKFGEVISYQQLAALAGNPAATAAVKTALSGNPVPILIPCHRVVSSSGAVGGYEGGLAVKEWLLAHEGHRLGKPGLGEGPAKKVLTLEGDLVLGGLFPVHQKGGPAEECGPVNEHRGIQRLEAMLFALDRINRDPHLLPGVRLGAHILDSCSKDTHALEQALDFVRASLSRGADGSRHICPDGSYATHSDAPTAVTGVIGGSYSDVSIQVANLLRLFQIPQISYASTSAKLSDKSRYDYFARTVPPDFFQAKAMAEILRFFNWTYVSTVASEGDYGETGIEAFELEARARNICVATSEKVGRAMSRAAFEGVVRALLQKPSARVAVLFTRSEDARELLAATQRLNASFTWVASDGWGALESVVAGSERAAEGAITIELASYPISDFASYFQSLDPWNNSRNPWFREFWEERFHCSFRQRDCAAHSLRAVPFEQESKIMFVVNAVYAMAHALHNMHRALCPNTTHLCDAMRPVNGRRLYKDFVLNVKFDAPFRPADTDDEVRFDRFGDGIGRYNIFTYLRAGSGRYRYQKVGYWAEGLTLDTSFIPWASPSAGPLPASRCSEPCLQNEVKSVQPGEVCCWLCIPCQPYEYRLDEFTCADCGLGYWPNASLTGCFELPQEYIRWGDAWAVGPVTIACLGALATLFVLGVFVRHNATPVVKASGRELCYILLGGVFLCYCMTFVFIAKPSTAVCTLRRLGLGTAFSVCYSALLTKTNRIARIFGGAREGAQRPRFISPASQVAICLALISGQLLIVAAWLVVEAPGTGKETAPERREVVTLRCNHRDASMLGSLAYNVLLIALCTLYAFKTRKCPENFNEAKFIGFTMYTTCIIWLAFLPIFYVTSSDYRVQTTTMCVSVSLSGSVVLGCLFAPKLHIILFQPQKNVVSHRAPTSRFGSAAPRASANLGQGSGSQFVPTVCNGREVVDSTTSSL
# Procedure: Whole cell patch clamp recordings from HEK 293T cells were performed 24-48 hours after transfection as previously described (Farrants et al., 2018). Briefly, voltage clamp recordings at −60 mV were performed in a high potassium (120 mM) solution to enable large inward currents upon receptor activation.
# Unless otherwise noted, cells were incubated with 1-10 μM of PORTL for 45-60 min at 37° C. in the appropriate extracellular recording solution. Labeling efficiency was determined as previously described (Levitz et al., 2017). Illumination was applied to the entire field of view using a CoolLED pE-4000 through a 40× objective. Light intensity in the sample plane was 1-2 mW/mm^2. pClamp software was used for both data acquisition and control of illumination. All drugs were purchased from Tocris and applied using a gravity-driven perfusion system.
# FIG. 3A-3C. Monovalent BGAG12,460 elicits rat SNAP-mGluR2 and human SNAP-mGluR6 GIRK photo-current in HEK293 cells. FIG. 3A. Group II and III mGluRs, like mGluR2 and 6, respectively, couple to GIRK channels in neurons and this system reconstitutes in non-neuronal cell lines, so that SNAP-mGluR2 or 6 coupled to a BGAG photoswitch will be activated by light and induce hyperpolarizing GIRK current. FIG. 3B. Blue (460 nm) light photo-activates BGAG12,460:SNAP-mGluR2 and elicits an inward K+ current from co-expressed GIRK channel in a HEK293 cell voltage clamped at −60 mV with [K+]in=[K+]out=150 mM. FIG. 3C.
# FIG. 4A-4D. Multibranched BGAG12,460 increases potency and sensitivity of SNAP-mGluR2 activation of GIRK channels in HEK293 cells. FIG. 4A. ^4×BGAG12,460 consists of a single BG end for 1:1 attachment to SNAP on each subunit of the mGluR and 4 branches of a 12-PEG linker, with each branch bearing a photoswitchable azobenzene-glutamate (AG). FIG. 4B. […] Dependence of SNAP-mGluR2 photo-activation efficiency, read out as GIRK current, with single, 2-branch and 4-branch BGAG12,460. […]
structure (smiles),measurement,setting,value
"Nc1nc(OCc2ccc(CNC(=O)CCCC(=O)N[C@H](CCC(=O)N[C@H](CCC(=O)NCCOCCOCCOCCOCCOCCOCCOCCOCCOCCOCCOCCOCCC(=O)NCCNc3ccc(/N=N/c4ccc(NC(=O)CCC[C@@H](C[C@H](N)C(=O)O)C(=O)O)cc4)cc3)C(=O)NCCOCCOCCOCCOCCOCCOCCOCCOCCOCCOCCOCCOCCC(=O)NCCNc3ccc(/N=N/c4ccc(NC(=O)CCC[C@@H](C[C@H](N)C(=O)O)C(=O)O)cc4)cc3)C(=O)N[C@H](CCC(=O)NCCOCCOCCOCCOCCOCCOCCOCCOCCOCCOCCOCCOCCC(=O)NCCNc3ccc(/N=N/c4ccc(NC(=O)CCC[C@@H](C[C@H](N)C(=O)O)C(=O)O)cc4)cc3)C(=O)NCCOCCOCCOCCOCCOCCOCCOCCOCCOCCOCCOCCOCCC(=O)NCCNc3ccc(/N=N/c4ccc(NC(=O)CCC[C@@H](C[C@H](N)C(=O)O)C(=O)O)cc4)cc3)cc2)c2nc[nH]c2n1 [^4×BGAG12,460]","line pattern recognition, parallel lines spaced 1 versus 6 cm",[1],spent also more time on the side of the non-aversive visual display
same,visible light photoactivation of SNAP-mGluR2,"SNAP-mGluR2; 460 nm light, GIRK current, HEK293 cells",near-complete photoactivation of mGluR2; also recorded: close to the maximum activation that is achieved with saturating glutamate
same,increase in sensitivity (shift of mid-point of the intensity-response curve),"SNAP-mGluR2; cultured HEK293 cells, versus BGAG12,460",~5 fold

# From patent US12076329B2, “Compositions and methods for enhancing visual function” (The Regents of the University of California, priority 2020, dated 2024)
